Measured values from patent US20020165236A1, “Compounds for the treatment of protozoal diseases” (priority 2001, published 2002).

Legend:
[1] = system: multiresistant Dd2 strain of Plasmodium falciparum; assay: antiplasmodial action, [8-3H]hypoxanthine incorporation, Dd2 strain; format: cell-based; details: read-out: in vitro antiplasmodial activity (IC50 value class)
Method: For the determination of the antiplasmodial action of the compounds, the multiresistant Dd2 strain of Plasmodium falciparum was used. The incorporation of [8-^3H]hypoxanthine into the parasitic nucleic acids was measured. The plasmodia were incubated at 0.3% parasitaemia and an erythrocyte haematocrit of 2.5% in the presence of different concentrations of the compounds in a final volume of 200-μl. The medium employed was RPMI 1640 which contained 10% of heat-treated human serum and 3 mg/l of gentamycin. in the incubations, the concentrations of the compounds varied from 0.3 to 100 μM. After 48 h, each batch was treated with 50 µl of […] (1 mCi/ml) and incubated for a further 18 h. The cells were filtered off, washed and suspended in 20 μl of scintillation fluid. The radioactive hypoxanthine absorbed by the parasites was then quantified using a scintillation counter.
The results were presented graphically and the IC50 value was determined using a fitting function. The value IC50, the ‘inhibition constant’, indicates the value in μMol/1 at which 50% inhibition occurs.

[2] = system: 3D7 chloroquine sensitive strain of Plasmodium falciparum; assay: antiplasmodial activity against 3D7 strain; format: cell-based; details: read-out: in vitro antiplasmodial activity (IC50 value class)
Method: Antiplasmodial activity against the 3D7 chloroquine sensitive strain of Plasmodium falciparumwas determined as described elsewhere (J. Med. Chem. (2001) 44(19), 3187-3194).

IC50 [1] [µM] | IC50 [2] [µM] | Structure (SMILES)
10 to 100 | 1 to 10 | N=C(N)c1cccc(NC(=O)Nc2cccc([N+](=O)[O-])c2)c1 [Compound 5]
1 to 10 | 1 to 10 | N=C(N)c1cccc(NC(=O)Nc2cccc(C(F)(F)F)c2)c1 [Compound 10]
1 to 10 | 1 to 10 | N=C(N)c1cccc(NC(=O)Nc2cc(C(F)(F)F)cc(C(F)(F)F)c2)c1 [Compound 13]
1 to 10 | 1 to 10 | N=C(N)c1ccc(NC(=O)Nc2cc(C(F)(F)F)cc(C(F)(F)F)c2)cc1 [Compound 15]
< 1 | < 1 | N=C(N)c1cccc(NC(=O)Nc2ccc3c(c2)S(=O)(=O)C=C3)c1 [Compound 18]
10 to 100 | 10 to 100 | N=C(N)c1cccc(NC(=O)Nc2cccc(S(N)(=O)=O)c2)c1 [Compound 24]
< 1 | 1 to 10 | N=C(N)c1cccc(NC(=O)Nc2ccc(S(=O)(=O)NCc3ccc(OC(F)(F)F)cc3)cc2)c1 [Compound 34]
1 to 10 | 1 to 10 | N=C(N)c1cccc(NC(=O)Nc2ccc(S(=O)(=O)c3ccccc3)cc2)c1 [Compound 61]
1 to 10 | 1 to 10 | N=C(N)c1cccc(NC(=O)Nc2cccc(S(=O)(=O)c3ccccc3)c2)c1 [Compound 62]
< 1 | 1 to 10 | N=C(N)c1ccc(NC(=O)Nc2ccc(S(=O)(=O)c3ccccc3)cc2)cc1 [Compound 64]
1 to 10 | 1 to 10 | Cc1ccc(C(=O)Nc2ccc(NC(=O)Nc3cccc(C(=N)N)c3)cc2O)cc1 [Compound 67]
1 to 10 | – | N=C(NCC1CCCO1)c1cccc(NC(=O)Nc2ccc(S(=O)(=O)c3ccc([N+](=O)[O-])cc3)cc2)c1 (centres unmarked) [Compound 84]
< 1 | – | N=C(NO)c1cccc(NC(=O)Nc2ccc(S(=O)(=O)c3ccc([N+](=O)[O-])cc3)cc2)c1 [Compound 85]
1 to 10 | – | COC(=O)c1cc(NC(=O)Nc2cccc(C(=N)Nc3cccnc3)c2)cc(C(F)(F)F)c1 [Compound 86]
1 to 10 | – | COC(=O)c1cc(NC(=O)Nc2cccc(C(=N)NCCN(C)C)c2)cc(C(F)(F)F)c1 [Compound 87]
1 to 10 | – | COC(=O)c1cc(NC(=O)Nc2cccc(C(=N)NCCN3CCCC3)c2)cc(C(F)(F)F)c1 [Compound 88]
1 to 10 | – | N=C(Nc1cccnc1)c1cccc(NC(=O)Nc2ccc(S(=O)(=O)NCc3ccc(S(N)(=O)=O)cc3)cc2)c1 [Compound 89]
< 1 | – | N=C(NCCN1CCOCC1)c1cccc(NC(=O)Nc2ccc(S(=O)(=O)NCc3ccc(S(N)(=O)=O)cc3)cc2)c1 [Compound 90]
< 1 | – | O=C(Nc1cccc(C2=NCCN2)c1)Nc1cccc(C(F)(F)F)c1 [Compound 91]
1 to 10 | – | N=C(NCCN1CCOCC1)c1cccc(NC(=O)Nc2cccc(C(F)(F)F)c2)c1 [Compound 93]
1 to 10 | – | N=C(NO)c1cccc(NC(=O)Nc2ccc(S(=O)(=O)NCc3ccc(S(N)(=O)=O)cc3)cc2)c1 [Compound 96]
1 to 10 | – | N=C(Nc1ccc(-c2ccccc2)cc1)c1cccc(NC(=O)Nc2cccc(C(F)(F)F)c2)c1 [Compound 100]
1 to 10 | – | N=C(N)c1cccc(NC(=O)C(=O)Nc2ccc(S(=O)(=O)NCc3ccccc3)cc2)c1 [Compound 101, N-(4-benzylsulfamoylphenyl)-N′-(3-carbamimidoyl-phenyl)-oxalamide]
10 to 100 | – | N=C(N)c1cccc(NC(=O)C(=O)Nc2cccc(S(=O)(=O)NCc3ccccc3)c2)c1 [Compound 102, N-(3-benzylsulfamoylphenyl)-N′-(3-carbamimidoyl-phenyl)-oxalamide]
